Measurements as given in US9012166B2, “Method for assaying histone methylation enzyme activity” (Kyushu Institute of Technology, priority 2010, dated 2015).

Target: T1, G9a (Mus musculus, UniProt Q9Z148)
T1 sequence (Q9Z148 1-1263): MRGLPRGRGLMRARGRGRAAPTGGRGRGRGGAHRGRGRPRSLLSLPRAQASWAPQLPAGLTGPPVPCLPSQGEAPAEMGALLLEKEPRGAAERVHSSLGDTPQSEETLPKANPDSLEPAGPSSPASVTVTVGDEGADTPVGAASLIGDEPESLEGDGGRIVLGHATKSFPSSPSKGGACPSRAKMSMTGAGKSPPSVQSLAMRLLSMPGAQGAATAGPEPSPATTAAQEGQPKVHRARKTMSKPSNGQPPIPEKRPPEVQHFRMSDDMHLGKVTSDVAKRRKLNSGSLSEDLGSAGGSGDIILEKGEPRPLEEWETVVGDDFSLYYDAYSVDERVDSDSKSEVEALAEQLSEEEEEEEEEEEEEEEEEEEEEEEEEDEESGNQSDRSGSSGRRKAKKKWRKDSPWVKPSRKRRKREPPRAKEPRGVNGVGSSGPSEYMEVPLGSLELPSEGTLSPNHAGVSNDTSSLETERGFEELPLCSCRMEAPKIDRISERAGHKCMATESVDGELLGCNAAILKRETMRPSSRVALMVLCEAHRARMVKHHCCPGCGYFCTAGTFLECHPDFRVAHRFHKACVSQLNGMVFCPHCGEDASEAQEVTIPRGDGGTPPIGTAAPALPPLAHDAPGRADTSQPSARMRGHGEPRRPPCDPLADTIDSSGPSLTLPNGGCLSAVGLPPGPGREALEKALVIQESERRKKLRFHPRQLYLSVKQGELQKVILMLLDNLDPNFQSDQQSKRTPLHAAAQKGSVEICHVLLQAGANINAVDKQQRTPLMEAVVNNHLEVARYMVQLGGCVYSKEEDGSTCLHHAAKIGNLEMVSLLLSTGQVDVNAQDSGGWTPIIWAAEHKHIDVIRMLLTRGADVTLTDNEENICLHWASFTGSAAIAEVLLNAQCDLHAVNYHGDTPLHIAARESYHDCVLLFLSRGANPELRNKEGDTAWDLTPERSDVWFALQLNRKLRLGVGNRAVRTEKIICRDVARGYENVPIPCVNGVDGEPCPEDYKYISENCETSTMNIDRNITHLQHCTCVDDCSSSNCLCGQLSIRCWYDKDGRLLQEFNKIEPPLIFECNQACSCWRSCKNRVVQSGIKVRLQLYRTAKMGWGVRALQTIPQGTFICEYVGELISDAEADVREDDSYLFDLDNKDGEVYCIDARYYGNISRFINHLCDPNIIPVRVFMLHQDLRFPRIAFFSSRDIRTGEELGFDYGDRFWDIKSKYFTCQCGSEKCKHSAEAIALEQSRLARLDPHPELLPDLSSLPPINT
Assay: Western blot evaluation of histone methyltransferase inhibitor, G9a
Type: biochemical
Conditions: FIG. 17
Protocol: To examine whether the activity of a histone methyltransferase inhibitor could be evaluated by an assay for measuring histone methyltransferase activity using a peptidyl MCA, the assay for measuring histone methyltransferase activity was attempted. However, the activity of gliotoxin as a histone methyltransferase inhibitor was evaluated by Western blot, prior to the assay for measuring histone methyltransferase activity. Gliotoxin is known not to inhibit the methylation activity of Set9 but to inhibit the methylation activity of G9a. […] The following assay for measuring histone methyltransferase activity was carried out in order to examine whether the same results as those from the Western blot could also be obtained from the assay for measuring histone methyltransferase activity.

**Q.** CN1C(=O)[C@]23CC4=CC=C[C@H](O)[C@H]4N2C(=O)[C@@]1(CO)SS3 [gliotoxin] was tested. Which “inhibition of the methylation of G9a (Western blot)” value did it give?
**A.** The value was “inhibited”.
